Experimental data taken from publication PMC9847679, “The anti-breast cancer stem cell properties of gold(I)-non-steroidal anti-inflammatory drug complexes” (Chemical Science, 2022).

Experiments:
[1] = tested on: HMLER-shEcad mammospheres; assay: Mammosphere viability assay (TOX8); assay type: cell-based, human; conditions: 5 days incubation
Experimental: Tumorsphere Formation and Viability Assay.
in ultralow-attachment 96-well plates (Corning) and incubated in MEGM supplemented with B27 (Invitrogen), 20 ng mL-1 EGF and 4 μg mL-1 heparin (Sigma) for 5 days. […] The viability of the mammospheres was determined by addition of a resazurin-based reagent, TOX8 (Sigma). After incubation for 16 h, the fluorescence of the solutions was read at 590 nm (λex = 560 nm). Viable mammospheres reduce the amount of the oxidised TOX8 form (blue) and concurrently increase the amount of the fluorescent TOX8 intermediate (red), indicating the degree of mammosphere cytotoxicity caused by the test compound. Fluorescence values were normalised to DMSO-containing controls and plotted as concentration of test compound versus % mammospheres viability. IC50 values were interpolated from the resulting dose dependent curves. The reported IC50 values are the average of three independent experiments, each consisting of two replicates per concentration level (overall n = 6).

MDA-MB-231 cells = assay: Monolayer cytotoxicity (MTT assay), MDA-MB-231 cells; assay type: cell-based, human; conditions: 72 h incubation
Excerpt: (§1) Cell Lines and Cell Culture Conditions. The human mammary epithelial HMLER and HMLER-shEcad cell lines were kindly donated by Prof. R. A. Weinberg (Whitehead Institute, MIT). The human epithelial breast MCF10A, breast adenocarcinoma MDA-MB-231 and MDA-MB-468, murine epithelial breast 4T1, and embryonic kidney HEK 293 cell lines were acquired from American Type Culture Collection (ATCC, Manassas, VA, USA).
(§2) HMLER, HMLER-shEcad, and MCF10A cells were maintained in Mammary Epithelial Cell Growth Medium (MEGM) with supplements and growth factors (BPE, hydrocortisone, hEGF, insulin, and gentamicin/amphotericin-B). MDA-MB-231, MDA-MB-468, 4T1, and HEK 293 cells were maintained in Dulbecco's Modified Eagle's Medium (DMEM) supplemented with fetal bovine serum (10 %) and penicillin/streptomycin (1 %). The cells were grown at 310 K in a humidified atmosphere containing 5% CO2.
Monolayer Cytotoxicity Studies. Exponentially growing cells were seeded at a density of approximately 5 × 10^3 cells per well in 96-well flat-bottomed microplates and allowed to attach for 24 h prior to addition of compounds. Various concentrations of the test compounds (0.0004-100 μM) were added and incubated for 72 h at 37 °C (total volume 200 μl). Stock solutions of the compounds were prepared as 10 mM DMSO solutions and diluted using cell […]
media. The final concentration of DMSO in each well was ≤1 %. […] The optical density was measured at 550 nm using a 96-well multiscanner autoreader. Absorbance values were normalised to (DMSO-containing) control wells and plotted as concentration of test compound versus % cell viability. […]
h, the fluorescence of the solutions was read at 590 nm (λex = 560 nm). […]
Cellular Uptake. […] The number of cells was counted at this stage, using a haemocytometer. […] All samples were diluted 17-fold with water and analysed using inductively coupled plasma mass spectrometry (ICP-MS, Thermo Scientific ICAP-Qc quadrupole ICP mass spectrometer). Gold levels are expressed as mass of Au (ng) per million cells. […]

HEK 293 cells = assay: Monolayer cytotoxicity (MTT assay), HEK 293 cells; assay type: cell-based; conditions: 72 h incubation
Excerpt: as §1, §2
Monolayer Cytotoxicity Studies. Exponentially growing cells were seeded at a density of approximately 5 × 10^3 cells per well in 96-well flat-bottomed microplates and allowed to attach for 24 h prior to addition of compounds. […]
media. […] The optical density was measured at 550 nm using a 96-well multiscanner autoreader. Absorbance values were normalised to (DMSO-containing) control wells and plotted as concentration of test compound versus % cell viability. […]

[2] = Tissue biodistribution of gold; assay type: in vivo, BALB/c mice; conditions: 4T1-bearing mice after 16 days treatment, 10 mg kg−1 IP
Experimental: tumour-size and body-weight measurements were performed three days a week, and the mice were euthanised after 16 days (n = 5 for 1 and n = 5 for vehicle control).
Tissue biodistribution of 1. Following the treatment o f mice with 1 for 16 days, each tissue (heart, lung, liver, spleen, kidney, and tumo ur) was excised from euthanised mice (n = 3).
The tissues were boiled for 5 h at 60 °C with 70% nitric acid (0.5 mL) , and then boiled again at 60 °C for 10 min with 35% hydrogen peroxide (0.5 mL). The solutions turned yellow, and were diluted as needed to measure the gold content using a Graphite Furnace Atomic Absorption Spectrometer. Before measuring all samples, th e standard solution curves were […]
Hematoxylin and eosin staining. The mice used in the in vivo comparative experiment of 1 and the vehicle control were sacrificed at day 16 post tumo ur cells (4T1) injection. The tissues (liver, kidney, and tumour) were fixed in freshly prepared paraformaldehyde (4% in PBS) for 24 h and processed for paraffin sectioning. Tissue sections of 5 µm were stained with hematoxylin and eosin and used for histological examination. A total of 3 sections per tissue (spanning the full depth of the tissue) were examined and photographed using a Nikon

Which results are given for `COc1ccc2c(c1)c(CC(=O)[O][Au][PH](c1ccccc1)(c1ccccc1)c1ccccc1)c(C)n2C(=O)c1ccc(Cl)cc1` [complex 1]?
IC50 [1]: 2000 ± 100 nM; IC50 (MDA-MB-231 cells): 3940 ± 300 nM; IC50 (HEK 293 cells): 1920 ± 230 nM; gold content in the kidney [2]: 15 μg g^−1 of tissue; gold content in tumour tissue [2]: 3 μg g^−1 of tissue
